Reference: US20250011300A1, “PIPERAZINYLSULFONYLARYL COMPOUNDS FOR TREATMENT OF BACTERIAL INFECTIONS” (Hoffmann-La Roche Inc., priority 2021, published 2025)
Values after ≈ are worked out from the molar mass of the structure shown.

Experiments:
[1] = target: Escherichia coli LpxH (UDP-2,3-diacylglucosamine hydrolase) (Escherichia coli (strain K12), UniProt P43341); test: 50% Inhibitory Concentration (IC50) to LpxH, UMP/CMP-Glo Glycosyltransferase Assay kit; format: biochemical
Procedure: Example 121: 50% Inhibitory Concentration (IC50) to UDP-2,3-diacylglucosamine hydrolase (LpxH)
The inhibitory potency of molecules to UDP-2,3-diacylglucosamine hydrolase (LpxH) was determined using the UMP/CMP-Glo™ Glycosyltransferase Assay kit. LpxH hydrolyzes the pyrophosphate bond of UDP-2,3-diacylglucosamine (UDP-DAG) to yield 2,3-diacylglucosamine 1-phosphate (lipid X) and UMP. The assay kit could quantify the UMP production by convert the UMP to ATP and generate light in a luciferase reaction. The compound's effect on the LpxH activity is detected by measuring the light using a luminometer (Envision).

[2] = test system: E. coli (ATCC 25922); test: Minimal Inhibitory Concentration (MIC) assay, E. coli; format: cell-based; conditions: Escherichia coli, ATCC25922; E. coli ATCC 25922, CAMHB, 20 hours at 35° C.; read-out: MIC E. coli ATCC 25922
Procedure: (§1) Example 122: Minimal Inhibitory Concentration Protocol (MIC) Assay
(§2) The in vitro potency of compounds to inhibit E. coli (ATCC 25922) and K. pneumonia (ATCC 43816) growth was assessed by MIC (Minimal Inhibitory Concentration) assay. Samples were prepared from 10 mM DMSO stock solutions. After serial 2-fold dilution in DMSO in a master plate (Greiner, Cat No: 651201), 180 μL sterile distilled water was added to 20 μL each aliquot of the samples. Then 10 μL diluted compounds were transferred into a new assay plate (Costar, 3599).
(§3) The growth medium Cation-Adjusted Mueller Hinton Broth (CAMHB) was prepared by adding the 20 mg per liter CaCl2) and 20 mg per liter MgCl2 into the MHB medium (Jianglai Company, sterilized).
(§4) Vials of each of the test microorganisms were maintained frozen in the vapor phase of a liquid nitrogen freezer. The bacteria E. coli ATCC 25922 (KWIKSTIK, 0335K) and K. pneumonia ATCC 43816 were taken out from liquid nitrogen freezer, then thawed in room temperature, and diluted in the CAMHB medium to achieve a final inoculum of 5×10^5 CFU/mL. 90 μL CAMHB with bacteria was dispensed to the assay plate and pipetted 5 times.
(§5) Then the assay plates were incubated for 20 hours at 35° C. in ambient air. Following incubation, the MIC (μg/mL), the lowest concentration of drug that inhibits visible growth of the microorganism was read and recorded throw the microscope.

[3] = test system: K. pneumonia (ATCC 43816); test: Minimal Inhibitory Concentration (MIC) assay, K. pneumonia; format: cell-based; conditions: Klebsiella pneumoniae; K. pneumoniae ATCC43816, CAMHB, 20 hours at 35° C.; read-out: MIC K. pneumoniae ATCC43816
Procedure: as §1, §2, §3, §4, §5

Escherichia coli LpxH (UDP-2,3-diacylglucosamine hydrolase), sequence (P43341 whole entry): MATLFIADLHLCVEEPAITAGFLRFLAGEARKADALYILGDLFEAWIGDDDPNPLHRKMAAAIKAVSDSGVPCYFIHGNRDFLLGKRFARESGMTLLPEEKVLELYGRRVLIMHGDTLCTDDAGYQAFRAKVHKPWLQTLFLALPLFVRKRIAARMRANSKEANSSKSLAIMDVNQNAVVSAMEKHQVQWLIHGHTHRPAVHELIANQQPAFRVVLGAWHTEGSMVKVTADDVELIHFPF

**Q.** Which IC50 [1] does the source give for O=C1CC(CN2CCNCC2)CN1c1ccc(S(=O)(=O)N2CCN(c3cc(C(F)(F)F)cc(Cl)n3)CC2)cc1 (centres unmarked) [Example 41, 1-[4-[4-[6-Chloro-4-(trifluoromethyl)-2-pyridyl]piperazin-1-yl]sulfonylphenyl]-4-(piperazin-1-ylmethyl)pyrrolidin-2-one] here?
**A.** 10.2 nM

**Q.** What about the MIC [2] of the same compound?
**A.** 1.27 µg/mL (≈ 2.16 µM)

**Q.** What about the MIC [3] of the same compound?
**A.** 2.55 µg/mL (≈ 4.34 µM)

**Q.** How did the MIC [2] turn out when NC1CC(=O)N(c2ccc(S(=O)(=O)N3CCN(c4nc(C5CC5)cc(C(F)(F)c5ccccc5)n4)CC3)cc2)C1 (centres unmarked) [Example 80, 4-Amino-1-[4-[4-[4-cyclopropyl-6-[difluoro(phenyl)methyl]pyrimidin-2-yl]piperazin-1-yl]sulfonylphenyl]pyrrolidin-2-one] was run?
**A.** > 28.4 µg/mL

**Q.** What about the MIC [3] of the same compound?
**A.** > 28.4 µg/mL

**Q.** With NC1CC(=O)N(c2ccc(S(=O)(=O)N3CCN(c4cc(C5(c6ccccc6)CC5)cc(Cl)n4)CC3)cc2)C1 (centres unmarked) [Example 75, 4-Amino-1-[4-[4-[6-chloro-4-(1-phenylcyclopropyl)-2-pyridyl]piperazin-1-yl]sulfonylphenyl]pyrrolidin-2-one] as the compound, how does the MIC [2] read?
**A.** 1.22 µg/mL (≈ 2.21 µM)

**Q.** And the MIC [3]?
**A.** 1.22 µg/mL (≈ 2.21 µM)

**Q.** With Cc1cncc(C(F)(F)c2cc(Cl)nc(N3CCN(S(=O)(=O)c4ccc(N5C[C@H](N)CC5=O)cc4)CC3)c2)n1 [Example 112, (4R)-4-amino-1-[4-[4-[6-chloro-4-[difluoro-(6-methylpyrazin-2-yl)methyl]-2-pyridyl]piperazin-1-yl]sulfonylphenyl]pyrrolidin-2-one] as the compound, how does the MIC [2] read?
**A.** 0.45 µg/mL (≈ 0.778 µM)

**Q.** What about the MIC [3] of the same compound?
**A.** 0.45 µg/mL (≈ 0.778 µM)

**Q.** Which MIC [2] does the source give for NC1CC(=O)N(c2ccc(S(=O)(=O)N3CCN(c4cc(C(F)(F)F)cc(Cl)n4)CC3)cn2)C1 (centres unmarked) [Example 62, 4-Amino-1-[5-[4-[6-chloro-4-(trifluoromethyl)-2-pyridyl]piperazin-1-yl]sulfonyl-2-pyridyl]pyrrolidin-2-one] here?
**A.** 7.74 µg/mL (≈ 15.3 µM)

**Q.** And the MIC [3]?
**A.** 15.5 µg/mL (≈ 30.6 µM)

**Q.** With O=C1CC(N2CCNCC2)CN1c1ccc(S(=O)(=O)N2CCN(c3cc(C(F)(F)F)cc(Cl)n3)CC2)cc1 (centres unmarked) [Example 47, 1-[4-[4-[6-Chloro-4-(trifluoromethyl)-2-pyridyl]piperazin-1-yl]sulfonylphenyl]-4-piperazin-1-yl-pyrrolidin-2-one] as the compound, how does the MIC [2] read?
**A.** 1.91 µg/mL (≈ 3.33 µM)

**Q.** And the MIC [3]?
**A.** 5.71 µg/mL (≈ 9.96 µM)

**Q.** Cc1cnc(C(F)(F)c2cc(Cl)nc(N3CCN(S(=O)(=O)c4ccc(N5C[C@H](N)CC5=O)cc4)CC3)c2)cn1 [Example 111, (4R)-4-amino-1-[4-[4-[6-chloro-4-[difluoro-(5-methylpyrazin-2-yl)methyl]-2-pyridyl]piperazin-1-yl]sulfonylphenyl]pyrrolidin-2-one] was tested. Which MIC [2] did it give?
**A.** 0.9 µg/mL (≈ 1.56 µM)

**Q.** And the MIC [3]?
**A.** 1.8 µg/mL (≈ 3.11 µM)

**Q.** What does the source list for N[C@@H]1CC(=O)N(c2ccc(S(=O)(=O)N3CCN(c4cc(C(F)(F)C56CNC[C@H]5C6)cc(Cl)n4)CC3)cc2)C1 (stereo partly drawn) [Example 116, (4R)-4-amino-1-[4-[4-[4-[[cis-3-azabicyclo[3.1.0]hexan-1-yl]-difluoro-methyl]-6-chloro-2-pyridyl]piperazin-1-yl]sulfonylphenyl]pyrrolidin-2-one]?
**A.** MIC [2]: 0.47 µg/mL (≈ 0.829 µM); MIC [3]: 0.94 µg/mL (≈ 1.66 µM)

**Q.** Which MIC [2] does the source give for N[C@@H]1CC(=O)N(c2ccc(S(=O)(=O)N3CCN(c4cc(C(F)(F)[C@H]5C[C@H](O)C5)cc(Cl)n4)CC3)cc2)C1 [Example 119, (4R)-4-amino-1-[4-[4-[6-chloro-4-[trans-difluoro-(3-hydroxycyclobutyl)methyl]-2-pyridyl]piperazin-1-yl]sulfonylphenyl]pyrrolidin-2-one] here?
**A.** 0.46 µg/mL (≈ 0.827 µM)

**Q.** And the MIC [3]?
**A.** 0.46 µg/mL (≈ 0.827 µM)

**Q.** What does the source list for Cc1cc(C(F)(F)F)nc(N2CCN(S(=O)(=O)c3ccc(N4CC(N)CC4=O)cc3)CC2)n1 (centres unmarked) [Example 65, 4-Amino-1-[4-[4-[4-methyl-6-(trifluoromethyl)pyrimidin-2-yl]piperazin-1-yl]sulfonylphenyl]pyrrolidin-2-one]?
**A.** MIC [2]: 3.74 µg/mL (≈ 7.72 µM); MIC [3]: 7.48 µg/mL (≈ 15.4 µM)

**Q.** What does the source list for NC1CC(=O)N(c2ccc(S(=O)(=O)N3CCN(c4nc(Cl)cc(C(F)(F)c5ccccc5)n4)CC3)cc2)C1 (centres unmarked) [Example 78, 4-Amino-1-[4-[4-[4-chloro-6-[difluoro(phenyl)methyl]pyrimidin-2-yl]piperazin-1-yl]sulfonylphenyl]pyrrolidin-2-one]?
**A.** MIC [2]: 0.22 µg/mL (≈ 0.391 µM); MIC [3]: 1.76 µg/mL (≈ 3.13 µM)

**Q.** How did the MIC [2] turn out when COc1nc(N2CCN(S(=O)(=O)c3ccc(N4CC(N)CC4=O)cc3)CC2)cc(C(F)(F)c2ccccc2)n1 (centres unmarked) [Example 81, 4-Amino-1-[4-[4-[6-[difluoro(phenyl)methyl]-2-methoxy-pyrimidin-4-yl]piperazin-1-yl]sulfonylphenyl]pyrrolidin-2-one] was run?
**A.** 4.36 µg/mL (≈ 7.81 µM)

**Q.** And the MIC [3]?
**A.** 6.98 µg/mL (≈ 12.5 µM)

**Q.** What does the source list for C[C@H]1CNCC(C(F)(F)c2cc(Cl)nc(N3CCN(S(=O)(=O)c4ccc(N5C[C@H](N)CC5=O)cc4)CC3)c2)O1 (stereo partly drawn) [Example 114, (4R)-4-amino-1-[4-[4-[6-chloro-4-[difluoro-[cis-6-methylmorpholin-2-yl]methyl]-2-pyridyl]piperazin-1-yl]sulfonylphenyl]pyrrolidin-2-one]?
**A.** MIC [2]: 0.91 µg/mL (≈ 1.56 µM); MIC [3]: 1.8 µg/mL (≈ 3.08 µM)

**Q.** For NCC1CCC(=O)N1c1ccc(S(=O)(=O)N2CCN(c3cc(C(F)(F)c4ccccc4)cc(Cl)n3)CC2)cc1 (centres unmarked) [Example 86, 5-(Aminomethyl)-1-[4-[4-[6-chloro-4-[difluoro(phenyl)methyl]-2-pyridyl]piperazin-1-yl]sulfonylphenyl]pyrrolidin-2-one], which MIC [2] is on record?
**A.** 1.26 µg/mL (≈ 2.19 µM)

**Q.** What about the MIC [3] of the same compound?
**A.** 1.26 µg/mL (≈ 2.19 µM)

**Q.** How did the MIC [2] turn out when O=C1O[C@@H]2[C@@H](O)[C@H](CO)[C@@H](O)O[C@@H]2N1c1ccc(S(=O)(=O)N2CCN(c3cc(C(F)(F)F)cc(Cl)n3)CC2)cc1 [Example 23, (3aS,5S,6S,7S,7aR)-3-[4-[4-[6-chloro-4-(trifluoromethyl)-2-pyridyl]piperazin-1-yl]sulfonylphenyl]-5,7-dihydroxy-6-(hydroxymethyl)-5,6,7,7a-tetrahydro-3aH-pyrano[2,3-d]oxazol-2-one] was run?
**A.** 30.4 µg/mL (≈ 50 µM)

**Q.** What about the MIC [3] of the same compound?
**A.** 60.9 µg/mL (≈ 100 µM)

**Q.** N[C@@H]1CC(=O)N(c2ccc(S(=O)(=O)N3CCN(c4cc(C(F)(F)C5C[C@H]5CO)cc(Cl)n4)CC3)cc2)C1 (stereo partly drawn) [Example 117, (4R)-4-amino-1-[4-[4-[6-chloro-4-[trans-difluoro-[2-(hydroxymethyl)cyclopropyl]methyl]-2-pyridyl]piperazin-1-yl]sulfonylphenyl]pyrrolidin-2-one] was tested. Which MIC [2] did it give?
**A.** 0.93 µg/mL (≈ 1.67 µM)

**Q.** And the MIC [3]?
**A.** 1.9 µg/mL (≈ 3.42 µM)

**Q.** With NC[C@H]1CC[C@H](C(F)(F)c2cc(Cl)nc(N3CCN(S(=O)(=O)c4ccc(N5C[C@H](N)CC5=O)cc4)CC3)c2)CC1 [Example 118, (4R)-4-amino-1-[4-[4-[4-[[trans-4-(aminomethyl)cyclohexyl]-difluoro-methyl]-6-chloro-2-pyridyl]piperazin-1-yl]sulfonylphenyl]pyrrolidin-2-one] as the compound, how does the MIC [2] read?
**A.** 0.5 µg/mL (≈ 0.837 µM)

**Q.** And the MIC [3]?
**A.** 0.99 µg/mL (≈ 1.66 µM)

**Q.** Which results are given for Cc1nc(C(F)(F)c2cc(Cl)nc(N3CCN(S(=O)(=O)c4ccc(N5C[C@H](N)CC5=O)cc4)CC3)c2)cnc1Cl [Example 113, (4R)-4-amino-1-[4-[4-[6-chloro-4-[(5-chloro-6-methyl-pyrazin-2-yl)-difluoro-methyl]-2-pyridyl]piperazin-1-yl]sulfonylphenyl]pyrrolidin-2-one]?
**A.** MIC [2]: 0.26 µg/mL (≈ 0.424 µM); MIC [3]: 0.51 µg/mL (≈ 0.833 µM)

**Q.** NC1CCN(C2CC(=O)N(c3ccc(S(=O)(=O)N4CCN(c5cc(C(F)(F)F)cc(Cl)n5)CC4)cc3)C2)C1 (centres unmarked) [Example 50, 4-(3-Aminopyrrolidin-1-yl)-1-[4-[4-[6-chloro-4-(trifluoromethyl)-2-pyridyl]piperazin-1-yl]sulfonylphenyl]pyrrolidin-2-one] was tested. Which MIC [2] did it give?
**A.** 1.91 µg/mL (≈ 3.33 µM)

**Q.** What about the MIC [3] of the same compound?
**A.** 3.81 µg/mL (≈ 6.65 µM)

**Q.** NC1CC(=O)N(c2ccc(S(=O)(=O)N3CCN(c4cc(Cc5ccccc5)cc(Cl)n4)CC3)cc2)C1 (centres unmarked) [Example 74, 4-Amino-1-[4-[4-(4-benzyl-6-chloro-2-pyridyl)piperazin-1-yl]sulfonylphenyl]pyrrolidin-2-one] was tested. Which MIC [2] did it give?
**A.** 1.18 µg/mL (≈ 2.24 µM)

**Q.** And the MIC [3]?
**A.** 1.18 µg/mL (≈ 2.24 µM)

**Q.** Which results are given for [2H]C([2H])([2H])c1cc(C(F)(F)F)nc(N2CCN(S(=O)(=O)c3ccc(N4CC(N)CC4=O)cc3)CC2)n1 (centres unmarked) [Example 66, 4-Amino-1-[4-[4-[4-(trideuteriomethyl)-6-(trifluoromethyl)pyrimidin-2-yl]piperazin-1-yl]sulfonylphenyl]pyrrolidin-2-one]?
**A.** MIC [2]: 3.76 µg/mL (≈ 7.71 µM); MIC [3]: 7.52 µg/mL (≈ 15.4 µM)

**Q.** Which results are given for O=C1CC2(CNCCN2)CN1c1ccc(S(=O)(=O)N2CCN(c3cc(C(F)(F)c4ccccc4)cc(Cl)n3)CC2)cc1 (centres unmarked) [Example 85, 2-[4-[4-[6-Chloro-4-[difluoro(phenyl)methyl]-2-pyridyl]piperazin-1-yl]sulfonylphenyl]-2,6,9-triazaspiro[4.5]decan-3-one]?
**A.** MIC [2]: 2.29 µg/mL (≈ 3.71 µM); MIC [3]: 2.29 µg/mL (≈ 3.71 µM)

**Q.** Which MIC [2] does the source give for CC1COC(C(F)(F)c2cc(Cl)nc(N3CCN(S(=O)(=O)c4ccc(N5C[C@H](N)CC5=O)cc4)CC3)c2)CN1 (some centres unmarked) [Example 115] here?
**A.** 0.97 µg/mL (≈ 1.66 µM)

**Q.** What about the MIC [3] of the same compound?
**A.** 1.9 µg/mL (≈ 3.25 µM)
